US10208040B2, “Fused imidazo-piperidine JAK inhibitors” (THERAVANCE BIOPHARMA R&D IP, LLC, priority 2017, dated 2019)

Assays:
[1] = Pharmacokinetics in plasma and lung in mouse; format: in vivo; details: oral aspiration, ratio of lung exposure to plasma exposure
[2] = test system: IL-13 induced pSTAT6 in lung tissue; assay: Murine model of IL-13 induced pSTAT6 induction in lung tissue; format: in vivo; details: mouse lung, oral aspiration 1 mg/mL 50 μL, IL-13 challenge 4 h post dose, pSTAT6 at 5 hours
Procedure: IL-13 is an important cytokine underlying the pathophysiology of asthma (Kudlacz et al. Eur. J. Pharmacol, 2008, 582, 154-161). IL-13 binds to cell surface receptors activating members of the Janus family of kinases (JAK) which then phosphorylate STAT6 and subsequently activates further transcription pathways. In the described model, a dose of IL-13 was delivered locally into the lungs of mice to induce the phosphorylation of STAT6 (pSTAT6) which is then measured as the endpoint.
Adult balb/c mice from Harlan were used in the assay. On the day of study, animals were lightly anesthetized with isoflurane and administered either vehicle or test compound (1 mg/mL, 50 μL total volume over several breaths) via oral aspiration. Animals were placed in lateral recumbency post dose and monitored for full recovery from anesthesia before being returned to their home cage. Four hours later, animals were once again briefly anesthetized and challenged with either vehicle or IL-13 (0.03 μg total dose delivered, 50 μL total volume) via oral aspiration before being monitored for recovery from anesthesia and returned to their home cage. One hour after vehicle or IL-13 administration, lungs were collected for both pSTAT6 detection using an anti-pSTAT6 ELISA (rabbit mAb capture/coating antibody; mouse mAb detection/report antibody: anti-pSTAT6-pY641; secondary antibody: anti-mouse IgG-HRP) and analyzed for total drug concentration as described above in Assay 3.
Selected compounds of the invention were tested in the assay. Activity in the model is evidenced by a decrease in the level of pSTAT6 present in the lungs of treated animals at 5 hours compared to the vehicle treated, IL-13 challenged control animals. The difference between the control animals which were vehicle-treated, IL-13 challenged and the control animals which were vehicle-treated, vehicle challenged dictated the 0% and 100% inhibitory effect, respectively, in any given experiment.

[3] = test system: IL-2/anti-CD3 stimulated STAT5 phosphorylation in CD4+ T cells; assay: Inhibition of IL-2 stimulated pSTAT5 in CD4+ T cells; format: cell-based; details: CD4+ T cells in human PBMCs; read-out: pIC50 inhibition of IL-2 stimulated pSTAT5 (converted)
Procedure: (§1) The potency of the test compound for inhibition of interleukin-2 (IL-2)/anti-CD3 stimulated STATS phosphorylation was measured in CD4-positive (CD4+) T cells in human peripheral blood mononuclear cells (PBMCs) isolated from human whole blood (Stanford Blood Center) using flow cytometry. Because IL-2 signals through JAK, this assay provides a measure of JAK cellular potency.
CD4+ T cells were identified using a […] (PE) conjugated anti-CD4 antibody (Clone RPA-T4, BD Biosciences), while an Alexa Fluor 647 conjugated anti-pSTAT5 antibody (pY694, Clone 47, BD Biosciences) was used to detect STATS phosphorylation.
(1) The protocol of Assay 7 paragraph (1) was followed with the exception that the cytokine stimulation with anti-CD3 was performed for 30 min instead of 24 h.
(2) After cytokine stimulation, cells were fixed with pre warmed fix solution (200 μL; BD Biosciences) for 10 min at 37° C., 5% CO2, washed twice with DPBS buffer (1 mL, Life Technologies), and resuspended in ice cold Perm Buffer III (1000 μL, BD Biosciences) for 30 min at 4° C. Cells were washed twice with 2% FBS in DPBS (FACS buffer), and then resuspended in FACS buffer (100 μL) containing anti-CD4 PE (1:50 dilution) and anti-CD3 […] (1:5 dilution) for 60 min at room temperature in the dark. After incubation, cells were washed twice in FACS buffer before being analyzed using a LSRII flow cytometer (BD Biosciences). To determine the inhibitory potency of test compounds in response to IL-2/anti-CD3, the median fluorescent intensity (MFI) of pSTAT5 was measured in CD4+ T cells. IC50 values were determined from analysis of the inhibition curves of MFI vs compound concentration. Data are expressed as pIC50 (negative decadic logarithm IC50) values.

[4] = test system: IL-4 stimulated STAT6 phosphorylation in CD3+ T cells; assay: Inhibition of IL-4 stimulated pSTAT6 in CD3+ T cells; format: cell-based; details: T-cell; CD3+ T cells in human PBMCs; read-out: pIC50 inhibition of IL-4 stimulated pSTAT6 (converted)
Procedure: as §1, with “interleukin-4 (IL-4)” for “interleukin-2 (IL-2)/anti-CD3”, “STAT6” for “STATS”, “CD3-positive (CD3+)” for “CD4-positive (CD4+)”, “IL-4” for “IL-2”
CD3+ T cells were identified using a […] (PE) conjugated anti-CD3 antibody (Clone UCHT1, BD Biosciences), while an Alexa Fluor 647 conjugated anti-pSTAT6 antibody (pY641, Clone 18/P, BD Biosciences) was used to detect STAT6 phosphorylation.
Human peripheral blood mononuclear cells (PBMC) were isolated from human whole blood of healthy donors as in Assays 7 and 8. […] After incubation, cells were washed twice in FACS buffer before being analyzed using a LSRII flow cytometer (BD Biosciences).
To determine the inhibitory potency of the test compound in response to IL-4, the median fluorescent intensity (MFI) of pSTAT6 was measured in CD3+ T cells. IC50 values were determined from analysis of the inhibition curves of MFI vs compound concentration. Data are expressed as pIC50 (negative decadic logarithm IC50).

[5] = test system: IL-6 stimulated STAT3 phosphorylation in CD3+ T cells; assay: Inhibition of IL-6 stimulated pSTAT3 in CD3+ T cells; format: cell-based, human; details: for IC50: T-cell, CD3+ T cells in human PBMCs, read-out: pIC50 inhibition of IL-6 stimulated pSTAT3 (converted)
Excerpt: A protocol analogous to that of Assay 9 was used to determine the potency of the test compound for inhibition of interleukin-6 (IL-6) stimulated STAT3 phosphorylation. An Alexa Fluor 647 conjugated anti-pSTAT3 antibody (pY705, Clone 4/P, BD Biosciences) was used to detect STAT3 phosphorylation.

Compound | Lung to Plasma ratio Assay 3 [1] | pSTAT6 inhibition Assay 4 [2] | IC50 [3] | IC50 [4] | inhibition of IL-6 signaling (in words) [5] | IC50 [5]
CCc1cc(O)c(F)cc1-c1ccc2c(-c3nc4c([nH]3)CN(C(C)C)[C@H](C(=O)N3CC[C@H](N(C)C)C3)C4)n[nH]c2c1 [Example 3] | B (B denotes a ratio between 50 and 100) | B (B represents between 40% and 60% inhibition) | ~20 nM | 10 nM | inhibit IL-6 signaling | 39.8 nM
CCc1cc(O)c(F)cc1-c1ccc2c(-c3nc4c([nH]3)CN(CC)[C@@H](C(=O)N3CCN(C(C)(C)C)CC3)C4)n[nH]c2c1 [Example 1-37] |  | C (C represents between 25% and 40% inhibition) | ~7.94 nM |  |  | 
CCCN1Cc2[nH]c(-c3n[nH]c4cc(-c5cc(F)c(O)cc5CC)ccc34)nc2C[C@H]1C(=O)N1C[C@@H]2C[C@H]1CN2C [Example 1, ((S)-2-(6-(2-ethyl-5-fluoro-4-hydroxyphenyl)-1H-indazol-3-yl)-5-propyl-4,5,6,7-tetrahydro-3H-imidazo[4,5-c]pyridin-6-yl)((1S,4S)-5-methyl-2,5-diazabicyclo-[2.2.1]heptan-2-yl)methanone] | A (A denotes a ratio 100-200) | A (A represents between 60% and 80% inhibition) | ~50.1 nM | 20 nM | inhibit IL-6 signaling | 63.1 nM
